By ED50 is commonly meant the dose at which the effect has come halfway, by size or by number of responders. For orientation: IC50 means the midpoint of a concentration-inhibition curve.

The text below walks through data of patent US9630914B2, “Multitarget FAAH and COX inhibitors and therapeutical uses thereof” (FONDAZIONE ISTITUTO ITALIANO DI TECNOLOGIA, priority 2012, dated 2017).

Read-outs that look alike come from different tables or passages of the source.

Data set [1] relates to gastric mucosa. The data set is described as follows: Gastric lesions (gastric irritation, ulceration index). Type of data set: in vivo. The note with it: food-deprived mice. The text has this:
(§1) Male CD1 mice, weighing 25-30 g, (Charles River, Calco, Italy) were used. Procedures were in accordance with the Ethical Guidelines of the International Association for the Study of Pain and were approved by Italian regulations on protection of animals used for experimental and other scientific purposes (D. M. 116192) as well as with European Economic Community regulations (O. J. of E. C. L 358/1 Dec. 18, 1986). Mice were housed in groups of 5 in ventilated cages containing autoclaved cellulose paper as nesting material, with free access to food and water. They were maintained under a 12 h light/dark cycle (lights on at 08:00 a.m.), at controlled temperature (21±1° C.) and relative humidity (55±10%). The animals are randomly divided in groups of 6 mice. Behavioral testing was performed between 9:00 a.m. and 5:00 p.m. Scientists running the experiments were not aware of the treatment protocol at the time of the test (blind procedure).
To study the gastric irritation the protocol of Chan et al. (1995) was followed. […] After 4 h, the mice were killed by CO2 asphyxiation. The stomachs were removed, opened, rinsed in PBS, and the stomach lining was photographed. Scoring was done by observers blinded to experimental conditions, as previously reported (Jain et al., 2002): red coloration=0.5; spot ulcers=1; hemorrhagic streaks=1.5. […]

Data set [2] deals with carrageenan-induced inflammation and hyperalgesia. Put plainly: Carrageenan test (paw edema and thermal hyperalgesia). Type of data set: in vivo, mice.
From the text: as §1
The pro-inflammatory agent λ-carrageenan (1% weight-vol^−1 in sterile water, 50 μL) was injected into the left hind paw of slightly restrained mice, and paw volume was measured with a plethysmometer (Ugo Basile, Comerio, Italy), while thermal hyperalgesia was assessed by the method of Hargreaves et al. (1988), measuring the latency to withdraw the hind paw from a focused beam of radiant heat (thermal intensity: infrared 3.0) in a plantar test apparatus (Ugo Basile, Comerio, Italy). Cutoff time was set at 30 s. Withdrawal latencies were measured on both ipsilateral and contralateral paws at various time points after drug administration.
Drug solutions were prepared immediately before use in saline containing 10% PEG-400 and 10% Tween 80 and orally administered in a volume of 2.5 mL-kg^−1 before intraplantar injection of carrageenan.
Results are expressed as the mean±S.E.M., or 95% confidence limits (95% CL). Efficacy data were compared using two-way analysis of variance (ANOVA) followed by Bonferroni's test for multiple comparisons. For gastric toxicity, the significance of differences between groups was determined by one-way ANOVA followed by a Bonferroni's test for multiple comparisons.

In data set [3] the target is ovine COX-1 (Ovis aries (Sheep), UniProt P05979). The data set is described as follows: In vitro COX assay (COX Inhibitor Screening Assay Kit), COX-1. Type of data set: biochemical. The note with it: 5 μM arachidonic acid. On the procedure:
COX activity was measured using a commercial kit (COX Inhibitor Screening Assay Kit—Cayman Chemical N. 560131) which includes both ovine COX-1 and human recombinant COX-2 enzymes. Inhibitors were pre-incubated with either ovine COX-1 or human COX-2 in order to screen isozyme-specific inhibition. Differently than described in the kit protocol, the reaction was carried out in the presence of 5 μM arachidonic acid while for the blank sample (no activity) the two enzymes were inactivated for 40 minutes at 100° C. It was then measured the amount of PGF2α produced by reduction with SnCl2 of COX-derived PGH2, via enzyme immunoassay (EIA) using a PG-specific antibody and competing with a PG-acetylcholinesterase conjugate.
Absorbance was measured at 412 nm with a Tecan Infinite M200 plate reader and data were processed according to manufacturer's instructions.
The median inhibitory concentrations (IC50) were determined by non-linear regression analysis of the Log [concentration]/response curves generated with mean replicate values using a four parameter Hill equation curve fitting with GraphPad Prism 5 (GraphPad Software Inc., CA-USA).

Data set [4] concerns FAAH. The note with it: literature value; cited from earlier work.
[5] abbreviates: oral, 3, 10, 30 and 100 mg/kg, mouse.

Sequence of ovine COX-1 (P05979 25-600): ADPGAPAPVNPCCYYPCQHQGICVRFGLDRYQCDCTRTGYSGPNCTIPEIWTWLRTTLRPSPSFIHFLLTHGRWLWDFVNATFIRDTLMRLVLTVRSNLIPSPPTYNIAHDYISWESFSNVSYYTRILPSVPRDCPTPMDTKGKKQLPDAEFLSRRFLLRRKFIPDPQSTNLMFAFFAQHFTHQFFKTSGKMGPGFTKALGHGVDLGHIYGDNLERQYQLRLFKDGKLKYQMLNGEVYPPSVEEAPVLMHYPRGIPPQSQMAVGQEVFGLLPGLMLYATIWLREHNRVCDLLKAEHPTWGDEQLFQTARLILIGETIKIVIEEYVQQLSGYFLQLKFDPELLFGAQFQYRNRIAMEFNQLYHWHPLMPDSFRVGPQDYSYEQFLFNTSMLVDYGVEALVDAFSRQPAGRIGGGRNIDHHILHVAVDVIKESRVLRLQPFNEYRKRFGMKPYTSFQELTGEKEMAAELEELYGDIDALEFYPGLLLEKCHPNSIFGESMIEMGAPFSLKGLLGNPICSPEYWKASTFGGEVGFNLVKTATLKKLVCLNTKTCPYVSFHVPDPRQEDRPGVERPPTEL

In the case of `CC(C(=O)O)c1ccc(-c2ccccc2)c(F)c1` (stereo not shown) [Compound A, flurbiprofen, reference compound], the “gastric irritation and gastric ulcers” value in data set [1] (oral 30 mg/kg) was “profound gastric irritation and appearance of gastric ulcers”. The ED50 in data set [2] (oral, mouse carrageenan model, read-out: ED50 on edema (Δ volume paw)) was 30 mg/kg; in data set [2] (oral, mouse carrageenan model, read-out: ED50 on thermal hyperalgesia (withdrawal latency)) it was 30 mg/kg.

Consider `CCCCCCNC(=O)Oc1cccc(-c2ccc(C(C)C(=O)O)cc2F)c1` (stereo not shown) [Example 12, 2-[3-fluoro-4-[3-(hexylcarbamoyloxy)phenyl]phenyl]propanoic acid], for which half-maximal inhibition in data set [3] (IC50) required 0.012 µM. Further, the ulcerogenic effect entry in data set [1] (oral, up to 100 mg/kg) was “no ulcerogenic effect”. In addition, the ED50 in data set [2] (Mus musculus, read-out: ED50 on edema (Δ volume paw)) amounted to 10 mg/kg; in data set [2] (Mus musculus, read-out: ED50 on thermal hyperalgesia (withdrawal latency)), 10 mg/kg. Besides, in data set [2] (setting [5]), the “effect on carrageenan-induced inflammation and hyperalgesia” value was “dose-dependent and persistent suppression”. Besides, the “potency at inhibiting the responses induced by carrageenan, compared with compound A” value in data set [2] (setting [5]) was “more potent than oral compound A”.

As to `Cc1cccnc1NC(=O)C(C)c1ccc(CC(C)C)cc1` (stereo not shown) [Ibu-am5], the IC50 in data set [4] is 2.7 µM.
